We go through two compounds from paper PMC9413440, “An Iterative Approach Guides Discovery of the FabI Inhibitor Fabimycin, a Late-Stage Antibiotic Candidate with In Vivo Efficacy against Drug-Resistant Gram-Negative Infections” (ACS Central Science, 2022).

Values after ≈ are worked out from the molar mass of the structure shown. Read-outs that look alike come from different tables or passages of the source.

The target of one assay is A. baumannii FabI (Acinetobacter baumannii, UniProt D0CAD5). The assay can be described thus: Differential scanning fluorimetry. The following applies: relative to the holoenzyme. The assay is classed as binding. Here is the method: supplemented with 100 µg/mL ampicillin at 37°C until OD600 reached 0.6-0.7. The cells were induced with 1mM IPTG and incubated for 20 hours at 18°C and spun down at 8000 rpm for 15 minutes. Cell pellet was resuspended in the lysis buffer (50 mM Tris-HCl pH 8.0, 500 mM Na Cl, 20 mM imidazole, 10% glycerol, 0.5 mM TCEP, protease inhibitor and Lysonase) and passed through microfluidizer followed by centrifugation and filtration to remove cell debris. The clarified lysate was supplemented with 20 mM imidazole and passed over a HisTrap column (Cytiva) pre-equilibrated with the wash buffer (50 mM Tris-HCl pH 8.0, 500 mM NaCl, 20 mM imidazole, 10% glycerol, 0.5 mM TCEP). The column was washed with the wash buffer and eluted over a 20-500 mM imidazole gradient. […]
A. baumannii FabI, sequence (D0CAD5 entry or part of it): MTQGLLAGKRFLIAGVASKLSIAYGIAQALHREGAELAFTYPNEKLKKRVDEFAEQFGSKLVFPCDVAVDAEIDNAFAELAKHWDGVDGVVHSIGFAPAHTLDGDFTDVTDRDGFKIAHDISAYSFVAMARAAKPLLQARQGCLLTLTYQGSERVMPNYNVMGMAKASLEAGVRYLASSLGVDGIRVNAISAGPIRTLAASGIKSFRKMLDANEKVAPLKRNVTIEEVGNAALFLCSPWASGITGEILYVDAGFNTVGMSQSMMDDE
Recombinant E. coli and A. baummani FabI enzymes were used in a continuous NADH absorbance assay (20 µL in 384w format). […] After shaking for 5 seconds the reaction was monitored at NADH absorbance (340nm, 25°C) using a Molecular Devices SpectraMax M5 microplate reader. The linear portion of the progress curve was fit using plate-reader software. Percentage activity was calculated relative to DMSO only and no-substrate controls in each plate and the data were fit to Morrison’s quadratic using Graphpad Prism 9.3 to obtain apparent inhibition constant (Ki app) values. […]
In general terms: DSF heats the sample and reads unfolding from a dye or from intrinsic fluorescence.

In a further assay the test system is A. baumannii 19606. Kind of assay: MIC, broth microdilution (CLSI). The following applies: Acinetobacter baumannii. The assay is classed as cell-based. The procedure, abridged:
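MIC by CLSI micro-dilution broth method; medium cation-adjusted Mueller Hinton broth; biological triplicate unless stated otherwise.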
Background: Dilution methods test growth across graded concentrations, often in twofold steps.

A further assay deals with Pseudomonas aeruginosa. Kind of assay: MIC, Pseudomonas aeruginosa strains. In kind it is cell-based. Here is the method: (§1) II. Materials and Methods for Biological Experiments
(§2) S. aureus ATCC 29213 and E. coli MG1655 were obtained from the American Type Culture Collection (ATCC). E. coli BW25113 and E. coli JW5503 were obtained from the Keio Collection. AR-bank strains were obtained from the Centers for Disease Control and Prevention and FDA Antibiotic Resistance Isolate Bank.
(§3) Antimicrobial susceptibility tests
(§4) Susceptibility testing was performed in biological triplicate, unless noted otherwise, using the micro-dilution broth method as outlined by the Clinical and Laboratory Standards Institute. Bacteria were cultured with cation-adjusted Mueller Hinton broth (Sigma Aldrich, catalogue number: 90922). […]
Error bars represent the standard error of the mean of three biological replicates. All compounds evaluated in biological assays were ≥95% pure.

The next assay deals with Streptococcus pneumoniae. The assay can be described thus: MIC, Streptococcus pneumoniae strains. In kind it is cell-based. Here is the method:
as §1, §2, §3, §4
NH3: m/z 391.2 → 171.0. Fabimycin: m/z 405.3 → 145.3. Power analysis was not used to determine the number of replicates. Error bars represent the standard error of the mean of three biological replicates. All compounds evaluated in biological assays were ≥95% pure.

`Cc1c(CN(C)C(=O)/C=C/c2cnc3c(c2)CC[C@@H](N)C(=O)N3)oc2ccccc12` [(R)-7]: the ΔTm (usually the shift of the melting midpoint relative to a reference) at A. baumannii FabI came to 18 ± 0.5 °C.

On to `Cc1c(CN(C)C(=O)/C=C/c2cnc3c(c2)CC[C@H](N)C(=O)N3)oc2ccccc12` [fabimycin], for which the MIC (in general, the lowest concentration found to suppress growth) in the assay on A. baumannii 19606 is 2 µg/mL (≈ 4.94 µM); against Pseudomonas aeruginosa (P. aeruginosa AR-0229), greater than 128 µg/mL; in the assay on Pseudomonas aeruginosa (P. aeruginosa AR-0230), greater than 128 µg/mL; in the assay with Pseudomonas aeruginosa (P. aeruginosa AR-0231), greater than 128 µg/mL; in the assay with Pseudomonas aeruginosa (P. aeruginosa AR-0233), greater than 128 µg/mL; with Pseudomonas aeruginosa (P. aeruginosa AR-0234) it was greater than 128 µg/mL. Besides, the MIC is greater than 128 µg/mL with Pseudomonas aeruginosa (P. aeruginosa AR-0235); greater than 128 µg/mL in the assay on Pseudomonas aeruginosa (P. aeruginosa AR-0609); greater than 128 µg/mL against Pseudomonas aeruginosa (P. aeruginosa AR-0610); greater than 128 µg/mL in the assay on Pseudomonas aeruginosa (Pseudomonas aeruginosa, ATCC27853, P. aeruginosa ATCC 27853, read-out: MIC); greater than 128 µg/mL in the assay on Pseudomonas aeruginosa (Pseudomonas aeruginosa, P. aeruginosa AR-0232, read-out: MIC); greater than 128 µg/mL against Streptococcus pneumoniae (S. pneumoniae 202-5872). Further, the MIC with Streptococcus pneumoniae (S. pneumoniae 202-6154), in the assay with Streptococcus pneumoniae (S. pneumoniae 202-6515), against Streptococcus pneumoniae (S. pneumoniae 202-7382), with Streptococcus pneumoniae (S. pneumoniae CO314937), in the assay on Streptococcus pneumoniae (S. pneumoniae MD77773) and against Streptococcus pneumoniae (S. pneumoniae MD77841) was greater than 128 µg/mL throughout. The MIC is greater than 128 µg/mL in the assay on Streptococcus pneumoniae (S. pneumoniae NYO5984); greater than 128 µg/mL in the assay on Streptococcus pneumoniae (Streptococcus pneumoniae, ATCC49619, S. pneumoniae ATCC 49619, read-out: MIC); greater than 128 µg/mL in the assay on Streptococcus pneumoniae (Streptococcus pneumoniae, S. pneumoniae NYO5986, read-out: MIC). For the same compound, on A. baumannii FabI, the ΔTm turned out to be 24 ± 0.5 °C.
